Where two headings read alike, the source gives them in different places.
Legend:
AR (androgen receptor) = biological target: T1, AR (androgen receptor) (Homo sapiens, UniProt P10275, T878A); assay: SafetyScreen44: AR; format: binding
T1 construct: purchased Eurofins Cerep SafetyScreen44
T1 sequence (P10275 1-920 T878A): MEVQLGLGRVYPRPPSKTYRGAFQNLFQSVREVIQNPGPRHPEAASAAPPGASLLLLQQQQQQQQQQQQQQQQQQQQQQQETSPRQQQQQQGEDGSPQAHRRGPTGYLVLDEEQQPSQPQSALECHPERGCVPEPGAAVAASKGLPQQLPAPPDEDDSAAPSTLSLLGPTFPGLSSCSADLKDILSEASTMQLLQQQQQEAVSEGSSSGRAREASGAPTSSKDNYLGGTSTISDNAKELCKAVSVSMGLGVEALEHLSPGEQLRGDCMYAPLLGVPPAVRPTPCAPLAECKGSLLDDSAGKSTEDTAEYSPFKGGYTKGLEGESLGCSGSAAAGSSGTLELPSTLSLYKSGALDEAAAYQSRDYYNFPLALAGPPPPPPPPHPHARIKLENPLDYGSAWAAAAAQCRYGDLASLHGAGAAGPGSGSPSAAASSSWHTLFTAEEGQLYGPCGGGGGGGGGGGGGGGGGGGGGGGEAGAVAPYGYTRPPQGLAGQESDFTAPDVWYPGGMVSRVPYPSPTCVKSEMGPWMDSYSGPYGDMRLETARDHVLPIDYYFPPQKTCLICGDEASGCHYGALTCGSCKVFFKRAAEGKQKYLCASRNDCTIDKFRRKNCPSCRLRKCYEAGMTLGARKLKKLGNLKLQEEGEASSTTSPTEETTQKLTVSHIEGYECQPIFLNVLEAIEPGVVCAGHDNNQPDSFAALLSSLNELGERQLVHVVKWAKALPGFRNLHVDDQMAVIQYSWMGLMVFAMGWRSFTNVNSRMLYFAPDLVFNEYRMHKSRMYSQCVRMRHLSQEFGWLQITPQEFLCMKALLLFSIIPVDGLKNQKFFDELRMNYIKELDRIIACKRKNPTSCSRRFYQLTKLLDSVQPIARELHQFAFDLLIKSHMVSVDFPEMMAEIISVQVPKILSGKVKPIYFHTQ

[1] = biological target: T2, β1 (beta-1 adrenergic receptor) (Homo sapiens, UniProt P08588); assay: SafetyScreen44: β1; format: binding
T2 construct: purchased Eurofins Cerep SafetyScreen44

[2] = biological target: T3, 5-HT3 (serotonin 3 receptor) (Homo sapiens, UniProt P46098); assay: SafetyScreen44: 5-HT3; format: binding
T3 construct: purchased Eurofins Cerep SafetyScreen44
T3 sequence (P46098 24-478): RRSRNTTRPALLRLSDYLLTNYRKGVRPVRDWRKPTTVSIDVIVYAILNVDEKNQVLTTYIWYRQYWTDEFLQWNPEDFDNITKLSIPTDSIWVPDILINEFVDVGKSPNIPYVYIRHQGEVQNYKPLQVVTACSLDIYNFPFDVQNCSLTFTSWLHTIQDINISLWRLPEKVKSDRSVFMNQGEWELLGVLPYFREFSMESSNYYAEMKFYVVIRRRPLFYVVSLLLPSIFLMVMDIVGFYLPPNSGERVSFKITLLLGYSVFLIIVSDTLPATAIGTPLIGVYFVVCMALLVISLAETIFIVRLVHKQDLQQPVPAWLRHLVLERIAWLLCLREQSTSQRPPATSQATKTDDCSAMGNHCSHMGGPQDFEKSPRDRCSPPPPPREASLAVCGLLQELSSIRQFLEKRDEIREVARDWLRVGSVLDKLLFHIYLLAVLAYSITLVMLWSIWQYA

[3] = biological target: T4, D2S (short dopamine D2 receptor) (Homo sapiens, UniProt P14416); assay: SafetyScreen44: D2S; format: binding
T4 construct: purchased Eurofins Cerep SafetyScreen44

[4] = Rat pharmacokinetic and tissue distribution study, oral dosing
Protocol: Table S2. […] Plasma, small intestine, colon, and colon contents were sampled at terminal time points. Tissues and content were homogenized in buffer (1:1 PBS:ethanol with EDTA-free protease inhibitor tablets [Roche]). All samples were analyzed using LC-MS/MS.

[5] = biological target: T5, β2 (beta-2 adrenergic receptor) (Homo sapiens, UniProt P07550); assay: SafetyScreen44: β2; format: binding
T5 construct: purchased Eurofins Cerep SafetyScreen44

[6] = Plasma concentration in rat pharmacokinetic-pharmacodynamic model; format: in vivo
[7] = biological target: T6, CB1 (cannabinoid receptor type 1) (Homo sapiens, UniProt P21554); assay: SafetyScreen44: CB1; format: binding
T6 construct: purchased Eurofins Cerep SafetyScreen44

[8] = Plasma levels in rat skin inflammation model; format: in vivo; details: all doses except 300 mg/kg BID, data not shown
Protocol: Other groups received anti–IL-23p19 antibody (Santa Cruz Biotechnology; Catalog #sc-271279LS) or isotype antibody via intraperitoneal injection on Days -1 and 3, as additional controls. On Day 0 through Day 3, rats were anesthetized with isoflurane and injected with 1.5 μg of recombinant rat IL-23 (R&D Systems) in 20 μL PBS, intradermally, in the right ear; controls received an equivalent volume of PBS. Body weight was recorded daily. Thickness of the right (IL-23 injected) ear was measured to the nearest 0.05 mm using calipers (Kroeplin GmbH; Schlüchtern, Germany). Animals were euthanized by CO2 asphyxiation on Day 4. Blood was collected via cardiac puncture, deposited into K2EDTA tubes, and centrifuged at 2000 × g for 20 min. Plasma was collected into 5% volume protease inhibitor and stored at − 80 °C until bioanalysis by LC–MS. For gene expression analyses (IL-22, IL-17A, and IL-17F), the right ear was excised, flash frozen, homogenized, and reverse transcription polymerase chain reaction (RT-PCR) was performed using a TaqMan gene expression array (ThermoFisher Scientific).

[9] = male Sprague-Dawley rats, 10 mg/kg oral, n=4/timepoint, homogenate, LC-MS/MS
[10] = male Sprague-Dawley rats, 10 mg/kg oral, n=4/timepoint, tissue homogenate, LC-MS/MS
[11] = male, Sprague-Dawley, rat, in vivo, po, 10 mg/kg

T4 sequence (P14416 1-414 isoform P14416-2): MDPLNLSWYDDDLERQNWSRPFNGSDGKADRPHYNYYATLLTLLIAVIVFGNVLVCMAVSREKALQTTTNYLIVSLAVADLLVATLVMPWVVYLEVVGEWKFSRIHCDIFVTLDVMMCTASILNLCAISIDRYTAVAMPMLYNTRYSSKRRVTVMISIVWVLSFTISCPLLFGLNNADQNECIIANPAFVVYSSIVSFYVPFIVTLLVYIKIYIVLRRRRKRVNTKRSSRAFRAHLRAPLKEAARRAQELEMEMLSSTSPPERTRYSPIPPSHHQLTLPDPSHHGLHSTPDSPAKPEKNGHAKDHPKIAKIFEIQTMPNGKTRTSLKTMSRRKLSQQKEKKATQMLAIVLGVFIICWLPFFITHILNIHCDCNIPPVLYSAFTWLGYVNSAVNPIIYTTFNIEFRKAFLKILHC
T5 sequence (P07550 whole entry): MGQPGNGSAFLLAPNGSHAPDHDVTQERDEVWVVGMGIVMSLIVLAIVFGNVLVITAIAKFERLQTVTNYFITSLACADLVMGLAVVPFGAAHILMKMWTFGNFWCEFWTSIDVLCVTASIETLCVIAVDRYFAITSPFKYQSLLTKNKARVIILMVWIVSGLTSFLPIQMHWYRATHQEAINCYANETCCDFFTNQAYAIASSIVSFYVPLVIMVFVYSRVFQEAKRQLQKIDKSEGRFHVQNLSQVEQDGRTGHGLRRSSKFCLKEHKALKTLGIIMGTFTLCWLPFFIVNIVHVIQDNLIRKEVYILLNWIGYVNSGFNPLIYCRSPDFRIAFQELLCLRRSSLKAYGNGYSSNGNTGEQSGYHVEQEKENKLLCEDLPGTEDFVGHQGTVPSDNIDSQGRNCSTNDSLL
T6 sequence (P21554 whole entry): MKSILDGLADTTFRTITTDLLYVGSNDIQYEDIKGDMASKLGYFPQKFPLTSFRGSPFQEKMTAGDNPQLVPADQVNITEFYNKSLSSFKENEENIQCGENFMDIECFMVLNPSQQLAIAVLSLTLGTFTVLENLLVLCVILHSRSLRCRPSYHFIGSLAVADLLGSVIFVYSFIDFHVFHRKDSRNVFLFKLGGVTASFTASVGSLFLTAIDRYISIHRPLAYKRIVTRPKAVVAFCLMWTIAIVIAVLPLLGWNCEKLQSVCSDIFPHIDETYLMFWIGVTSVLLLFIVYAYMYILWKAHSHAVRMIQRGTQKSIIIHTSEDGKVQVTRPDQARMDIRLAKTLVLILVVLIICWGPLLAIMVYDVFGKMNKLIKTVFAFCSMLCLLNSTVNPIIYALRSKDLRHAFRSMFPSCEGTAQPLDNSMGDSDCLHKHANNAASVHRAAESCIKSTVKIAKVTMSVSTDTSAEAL
T2 sequence (P08588 whole entry): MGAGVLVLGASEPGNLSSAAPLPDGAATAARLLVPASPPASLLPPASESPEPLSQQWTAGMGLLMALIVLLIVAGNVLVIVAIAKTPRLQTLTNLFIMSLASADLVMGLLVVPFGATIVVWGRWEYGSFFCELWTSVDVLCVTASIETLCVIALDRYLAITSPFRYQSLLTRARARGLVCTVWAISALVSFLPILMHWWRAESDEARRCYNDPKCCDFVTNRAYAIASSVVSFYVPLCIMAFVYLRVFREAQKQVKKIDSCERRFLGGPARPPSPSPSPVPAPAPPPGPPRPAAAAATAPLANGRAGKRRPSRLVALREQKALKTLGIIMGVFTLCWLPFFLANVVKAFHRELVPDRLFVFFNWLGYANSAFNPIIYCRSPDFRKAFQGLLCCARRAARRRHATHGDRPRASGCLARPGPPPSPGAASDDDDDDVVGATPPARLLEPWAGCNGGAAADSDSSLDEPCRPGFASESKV

## CC(=O)NCCCC[C@@H]1NC(=O)[C@H](Cc2c[nH]c3c(C)cccc23)NC(=O)[C@H]([C@@H](C)O)NC(=O)[C@H](CC(N)=O)NC(=O)[C@@H](NC(C)=O)C(C)(C)SSC(C)(C)[C@@H](C(=O)N[C@@H](Cc2ccc(OCCN)cc2)C(=O)N[C@@H](Cc2ccc3ccccc3c2)C(=O)NC2(C(=O)N[C@@H](CCC(=O)O)C(=O)N[C@@H](CC(N)=O)C(=O)N[C@@H](Cc3cccnc3)C(=O)N(C)CC(N)=O)CCOCC2)NC1=O [JNJ-77242113, S^3,1,S^3,6-cyclo[N-acetyl-3-sulfanyl-L-valyl-L-asparaginyl-L-threonyl-7-methyl-L-tryptophyl-N^6-acetyl-L-lysyl-3-sulfanyl-L-valyl-O-(2-aminoethyl)-L-tyrosyl-3-(naphthalen-2-yl)-L-alanyl-4-aminooxan-4-carbonyl-L-α-glutamyl-L-asparaginyl-3-(pyridin-3-yl)-L-alanyl-N^2-methylglycinamide]]
AR (androgen receptor); 1st run, read-out: Percent inhibition of control ligand binding, AR, 1st run
  inhibition at 10 µM: -5.6%
AR (androgen receptor); 2nd run, read-out: Percent inhibition of control ligand binding, AR, 2nd run
  inhibition at 10 µM: -3.7%
AR (androgen receptor); mean of 2 runs, read-out: Percent inhibition of control ligand binding, AR, Mean
  inhibition at 10 µM: -4.7%
[1]; 1st run, read-out: Percent inhibition of control ligand binding, β1, 1st run
  inhibition at 10 µM: -5.1%
[1]; 2nd run, read-out: Percent inhibition of control ligand binding, β1, 2nd run
  inhibition at 10 µM: 7.7%
[1]; mean of 2 runs, read-out: Percent inhibition of control ligand binding, β1, Mean
  inhibition at 10 µM: 1.3%
[2]; 1st run, read-out: Percent inhibition of control ligand binding, 5-HT3, 1st run
  inhibition at 10 µM: 0.7%
[2]; 2nd run, read-out: Percent inhibition of control ligand binding, 5-HT3, 2nd run
  inhibition at 10 µM: 3.4%
[2]; mean of 2 runs, read-out: Percent inhibition of control ligand binding, 5-HT3, Mean
  inhibition at 10 µM: 2.1%
[3]; 1st run, read-out: Percent inhibition of control ligand binding, D2S, 1st run
  inhibition at 10 µM: -6.6%
[3]; 2nd run, read-out: Percent inhibition of control ligand binding, D2S, 2nd run
  inhibition at 10 µM: -6.6%
[3]; mean of 2 runs, read-out: Percent inhibition of control ligand binding, D2S, Mean
  inhibition at 10 µM: -6.6%
[4]; [9]
  AUClast, colon content: 1,700,000 ng·hr/g
  Cmax, colon content: 371,000 ng/g
  Tmax, colon content: 6 h
[4]; [10]
  AUClast, colon: 5,670 ng·hr/g
  Cmax, colon: 1,380 ng/g
  Tmax, colon: 6 h
[4]; [11]
  AUC(0-t): 23.1 ng·h/mL
  Cmax: 6.49 ng/mL
  Tmax: 3 h
[4]; rat, oral dosing, data not shown
  Oral bioavailability: low oral bioavailability
[5]; 1st run, read-out: Percent inhibition of control ligand binding, β2, 1st run
  inhibition at 10 µM: -8.2%
[5]; 2nd run, read-out: Percent inhibition of control ligand binding, β2, 2nd run
  inhibition at 10 µM: -0.6%
[5]; mean of 2 runs, read-out: Percent inhibition of control ligand binding, β2, Mean
  inhibition at 10 µM: -4.4%
[6]; 10 mg/kg oral, plasma LC–MS/MS, dilution adjusted
  Mean dilution-adjusted exposure at 2 h (Tmax): 660 pM
[6]; in vivo oral doses less than 10 mg/kg
  Exposures (in words): below the limit of quantification
[7]; 1st run, read-out: Percent inhibition of control ligand binding, CB1, 1st run
  inhibition at 10 µM: 2.5%
[7]; 2nd run, read-out: Percent inhibition of control ligand binding, CB1, 2nd run
  inhibition at 10 µM: -6.9%
[7]; mean of 2 runs, read-out: Percent inhibition of control ligand binding, CB1, Mean
  inhibition at 10 µM: -2.2%
[8]
  Plasma levels 16 h after the final dose: below the limit of quantification

Source: article PMC11289455 (Scientific Reports, 2024)
